Reference: the supplement of paper PMC10307832

What was measured:
Assay in all cases: relative viability (nuclei count vs DMSO), 5 days (fraction); higher = more cells survive
VX-11e + Crizotinib = compound: CC1=CN=C(N=C1C2=CNC(=C2)C(=O)N[C@H](CO)C3=CC(=CC=C3)Cl)NC4=C(C=C(C=C4)F)Cl [VX-11e] + C[C@@H](Oc1cc(-c2cnn(C3CCNCC3)c2)cnc1N)c1c(Cl)ccc(F)c1Cl [Crizotinib] (partner 1 µM)
Procedure, shortened: (§1)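 Relative viability was taken as the ratio of nuclei in treated wells to nuclei in vehicle wells. Lung cancer cell lines in 1536-well plates received compounds by pin tool one day after seeding, either one drug alone or a fixed anchor-drug dose plus five library-drug doses (not always all listed) in √10 steps. Nuclei were counted on 4× images after 5 days of treatment, and values are medians of duplicate plates.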

VX-11e + Alpelisib = compound: CC1=CN=C(N=C1C2=CNC(=C2)C(=O)N[C@H](CO)C3=CC(=CC=C3)Cl)NC4=C(C=C(C=C4)F)Cl [VX-11e] + Cc1nc(NC(=O)N2CCC[C@H]2C(N)=O)sc1-c1ccnc(C(C)(C)C(F)(F)F)c1 [Alpelisib] (partner 2 µM)
Procedure, shortened: as §1

VX-11e + Lapatinib = compound: CC1=CN=C(N=C1C2=CNC(=C2)C(=O)N[C@H](CO)C3=CC(=CC=C3)Cl)NC4=C(C=C(C=C4)F)Cl [VX-11e] + CS(=O)(=O)CCNCc1ccc(-c2ccc3ncnc(Nc4ccc(OCc5cccc(F)c5)c(Cl)c4)c3c2)o1 [Lapatinib] (partner 2 µM)
Procedure, shortened: as §1

VX-11e + Foretinib = compound: CC1=CN=C(N=C1C2=CNC(=C2)C(=O)N[C@H](CO)C3=CC(=CC=C3)Cl)NC4=C(C=C(C=C4)F)Cl [VX-11e] + COc1cc2c(Oc3ccc(NC(=O)C4(C(=O)Nc5ccc(F)cc5)CC4)cc3F)ccnc2cc1OCCCN1CCOCC1 [Foretinib] (partner 0.25 µM)
Procedure, shortened: as §1

VX-11e + Bortezomib = compound: CC1=CN=C(N=C1C2=CNC(=C2)C(=O)N[C@H](CO)C3=CC(=CC=C3)Cl)NC4=C(C=C(C=C4)F)Cl [VX-11e] + CC(C)C[C@H](NC(=O)[C@H](Cc1ccccc1)NC(=O)c1cnccn1)B(O)O [Bortezomib] (partner 0.002 µM)
Procedure, shortened: as §1

VX-11e + Navitoclax = compound: CC1=CN=C(N=C1C2=CNC(=C2)C(=O)N[C@H](CO)C3=CC(=CC=C3)Cl)NC4=C(C=C(C=C4)F)Cl [VX-11e] + CC1(C)CCC(c2ccc(Cl)cc2)=C(CN2CCN(c3ccc(C(=O)NS(=O)(=O)c4ccc(N[C@H](CCN5CCOCC5)CSc5ccccc5)c(S(=O)(=O)C(F)(F)F)c4)cc3)CC2)C1 [Navitoclax] (partner 0.5 µM)
Procedure, shortened: as §1

VX-11e + Linsitinib = compound: CC1=CN=C(N=C1C2=CNC(=C2)C(=O)N[C@H](CO)C3=CC(=CC=C3)Cl)NC4=C(C=C(C=C4)F)Cl [VX-11e] + C[C@]1(O)C[C@@H](c2nc(-c3ccc4ccc(-c5ccccc5)nc4c3)c3c(N)nccn32)C1 [Linsitinib] (partner 1 µM)
Procedure, shortened: as §1

VX-11e + Olaparib = compound: CC1=CN=C(N=C1C2=CNC(=C2)C(=O)N[C@H](CO)C3=CC(=CC=C3)Cl)NC4=C(C=C(C=C4)F)Cl [VX-11e] + O=C(c1cc(Cc2n[nH]c(=O)c3ccccc23)ccc1F)N1CCN(C(=O)C2CC2)CC1 [Olaparib] (partner 8 µM)
Procedure, shortened: as §1

VX-11e + Pictilisib = compound: CC1=CN=C(N=C1C2=CNC(=C2)C(=O)N[C@H](CO)C3=CC(=CC=C3)Cl)NC4=C(C=C(C=C4)F)Cl [VX-11e] + CS(=O)(=O)N1CCN(Cc2cc3nc(-c4cccc5[nH]ncc45)nc(N4CCOCC4)c3s2)CC1 [Pictilisib] (partner 1 µM)
Procedure, shortened: as §1

VX-11e = compound: CC1=CN=C(N=C1C2=CNC(=C2)C(=O)N[C@H](CO)C3=CC(=CC=C3)Cl)NC4=C(C=C(C=C4)F)Cl [VX-11e]
Procedure, shortened: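 For viability, nuclei in each treated well were divided by nuclei in vehicle wells and the median across plates was taken. Lung cancer cell lines in 1536-well plates were pinned with five library-drug doses (not always all listed) spaced by √10, cultured 5 days without medium change, and imaged at 4× after Hoechst staining, with plates passing only at control CV below 25% and at least one doubling.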

VX-11e + Tozasertib = compound: CC1=CN=C(N=C1C2=CNC(=C2)C(=O)N[C@H](CO)C3=CC(=CC=C3)Cl)NC4=C(C=C(C=C4)F)Cl [VX-11e] + Cc1cc(Nc2cc(N3CCN(C)CC3)nc(Sc3ccc(NC(=O)C4CC4)cc3)n2)n[nH]1 [Tozasertib] (partner 0.1 µM)
Procedure, shortened: as §1

VX-11e + Dasatinib = compound: CC1=CN=C(N=C1C2=CNC(=C2)C(=O)N[C@H](CO)C3=CC(=CC=C3)Cl)NC4=C(C=C(C=C4)F)Cl [VX-11e] + Cc1nc(Nc2ncc(C(=O)Nc3c(C)cccc3Cl)s2)cc(N2CCN(CCO)CC2)n1 [Dasatinib] (partner 0.075 µM)
Procedure, shortened: as §1

VX-11e + Phenformin = compound: CC1=CN=C(N=C1C2=CNC(=C2)C(=O)N[C@H](CO)C3=CC(=CC=C3)Cl)NC4=C(C=C(C=C4)F)Cl [VX-11e] + N=C(N)NC(=N)NCCc1ccccc1 [Phenformin] (partner 250 µM)
Procedure, shortened: as §1

VX-11e + OSI-027 = compound: CC1=CN=C(N=C1C2=CNC(=C2)C(=O)N[C@H](CO)C3=CC(=CC=C3)Cl)NC4=C(C=C(C=C4)F)Cl [VX-11e] + COc1cccc2cc(-c3nc([C@H]4CC[C@H](C(=O)O)CC4)n4ncnc(N)c34)[nH]c12 [OSI-027] (partner 0.5 µM)
Procedure, shortened: as §1

VX-11e + Luminespib = compound: CC1=CN=C(N=C1C2=CNC(=C2)C(=O)N[C@H](CO)C3=CC(=CC=C3)Cl)NC4=C(C=C(C=C4)F)Cl [VX-11e] + CCNC(=O)c1noc(-c2cc(C(C)C)c(O)cc2O)c1-c1ccc(CN2CCOCC2)cc1 [Luminespib] (partner 0.01 µM)
Procedure, shortened: as §1

EBC-1
relative viability (VX-11e + Crizotinib; first compound 0.04 µM): 0.204 | relative viability (VX-11e + Crizotinib; first compound 0.1265 µM): 0.182 | relative viability (VX-11e + Crizotinib; first compound 0.4 µM): 0.163 | relative viability (VX-11e + Crizotinib; first compound 1.265 µM): 0.198 | relative viability (VX-11e + Crizotinib; first compound 4 µM): 0.18 | relative viability (VX-11e + Alpelisib; first compound 0.04 µM): 0.816 | relative viability (VX-11e + Alpelisib; first compound 0.1265 µM): 0.766 | relative viability (VX-11e + Alpelisib; first compound 0.4 µM): 0.632 | relative viability (VX-11e + Alpelisib; first compound 1.265 µM): 0.693 | relative viability (VX-11e + Alpelisib; first compound 4 µM): 0.23 | relative viability (VX-11e + Lapatinib; first compound 0.04 µM): 0.207 | relative viability (VX-11e + Lapatinib; first compound 0.1265 µM): 0.236 | relative viability (VX-11e + Lapatinib; first compound 0.4 µM): 0.19 | relative viability (VX-11e + Lapatinib; first compound 1.265 µM): 0.235 | relative viability (VX-11e + Lapatinib; first compound 4 µM): 0.177 | relative viability (VX-11e + Foretinib; first compound 0.04 µM): 0.104 | relative viability (VX-11e + Foretinib; first compound 0.1265 µM): 0.107 | relative viability (VX-11e + Foretinib; first compound 0.4 µM): 0.0992 | relative viability (VX-11e + Foretinib; first compound 1.265 µM): 0.111 | relative viability (VX-11e + Foretinib; first compound 4 µM): 0.109 | relative viability (VX-11e + Bortezomib; first compound 0.04 µM): 0.512 | relative viability (VX-11e + Bortezomib; first compound 0.1265 µM): 0.528 | relative viability (VX-11e + Bortezomib; first compound 0.4 µM): 0.599 | relative viability (VX-11e + Bortezomib; first compound 1.265 µM): 0.576 | relative viability (VX-11e + Bortezomib; first compound 4 µM): 0.239 | relative viability (VX-11e + Navitoclax; first compound 0.04 µM): 0.362 | relative viability (VX-11e + Navitoclax; first compound 0.1265 µM): 0.474 | relative viability (VX-11e + Navitoclax; first compound 0.4 µM): 0.325 | relative viability (VX-11e + Navitoclax; first compound 1.265 µM): 0.271 | relative viability (VX-11e + Navitoclax; first compound 4 µM): 0.168 | relative viability (VX-11e + Linsitinib; first compound 0.04 µM): 0.954 | relative viability (VX-11e + Linsitinib; first compound 0.1265 µM): 0.872 | relative viability (VX-11e + Linsitinib; first compound 0.4 µM): 0.494 | relative viability (VX-11e + Linsitinib; first compound 1.265 µM): 0.371 | relative viability (VX-11e + Linsitinib; first compound 4 µM): 0.19 | relative viability (VX-11e + Olaparib; first compound 0.04 µM): 0.749 | relative viability (VX-11e + Olaparib; first compound 0.1265 µM): 0.72 | relative viability (VX-11e + Olaparib; first compound 0.4 µM): 0.707 | relative viability (VX-11e + Olaparib; first compound 1.265 µM): 0.66 | relative viability (VX-11e + Olaparib; first compound 4 µM): 0.192 | relative viability (VX-11e + Pictilisib; first compound 0.04 µM): 0.494 | relative viability (VX-11e + Pictilisib; first compound 0.1265 µM): 0.436 | relative viability (VX-11e + Pictilisib; first compound 0.4 µM): 0.378 | relative viability (VX-11e + Pictilisib; first compound 1.265 µM): 0.201 | relative viability (VX-11e + Pictilisib; first compound 4 µM): 0.162 | relative viability (VX-11e; 0.04 µM): 1.06 | relative viability (VX-11e; 0.1265 µM): 1.01 | relative viability (VX-11e; 0.4 µM): 0.765 | relative viability (VX-11e; 1.265 µM): 0.77 | relative viability (VX-11e; 4 µM): 0.221

NCI-H1623
relative viability (VX-11e + Tozasertib; first compound 0.04 µM): 0.396 | relative viability (VX-11e + Tozasertib; first compound 0.1265 µM): 0.426 | relative viability (VX-11e + Tozasertib; first compound 0.4 µM): 0.418 | relative viability (VX-11e + Tozasertib; first compound 1.265 µM): 0.38 | relative viability (VX-11e + Tozasertib; first compound 4 µM): 0.23 | relative viability (VX-11e + Dasatinib; first compound 0.04 µM): 0.526 | relative viability (VX-11e + Dasatinib; first compound 0.1265 µM): 0.624 | relative viability (VX-11e + Dasatinib; first compound 0.4 µM): 0.369 | relative viability (VX-11e + Dasatinib; first compound 1.265 µM): 0.457 | relative viability (VX-11e + Dasatinib; first compound 4 µM): 0.398 | relative viability (VX-11e + Foretinib; first compound 0.04 µM): 0.856 | relative viability (VX-11e + Foretinib; first compound 0.1265 µM): 0.934 | relative viability (VX-11e + Foretinib; first compound 0.4 µM): 0.588 | relative viability (VX-11e + Foretinib; first compound 1.265 µM): 0.619 | relative viability (VX-11e + Foretinib; first compound 4 µM): 0.473 | relative viability (VX-11e + Phenformin; first compound 0.04 µM): 0.53 | relative viability (VX-11e + Phenformin; first compound 0.1265 µM): 0.623 | relative viability (VX-11e + Phenformin; first compound 0.4 µM): 0.433 | relative viability (VX-11e + Phenformin; first compound 1.265 µM): 0.546 | relative viability (VX-11e + Phenformin; first compound 4 µM): 0.409 | relative viability (VX-11e + OSI-027; first compound 0.04 µM): 0.43 | relative viability (VX-11e + OSI-027; first compound 0.1265 µM): 0.446 | relative viability (VX-11e + OSI-027; first compound 0.4 µM): 0.423 | relative viability (VX-11e + OSI-027; first compound 1.265 µM): 0.307 | relative viability (VX-11e + OSI-027; first compound 4 µM): 0.278 | relative viability (VX-11e + Luminespib; first compound 0.04 µM): 0.434 | relative viability (VX-11e + Luminespib; first compound 0.1265 µM): 0.492 | relative viability (VX-11e + Luminespib; first compound 0.4 µM): 0.3 | relative viability (VX-11e + Luminespib; first compound 1.265 µM): 0.48 | relative viability (VX-11e + Luminespib; first compound 4 µM): 0.337 | relative viability (VX-11e; 0.04 µM): 0.967 | relative viability (VX-11e; 0.1265 µM): 1.04 | relative viability (VX-11e; 0.4 µM): 0.724 | relative viability (VX-11e; 1.265 µM): 0.678 | relative viability (VX-11e; 4 µM): 0.561
